Experimental data taken from article PMC6278664, “Highly Cancer Selective Antiproliferative Activity of Natural Prenylated Flavonoids” (Molecules, 2018).
Where two headings read alike, the source gives them in different places.

How the values were obtained:
[1] = system: T-47D human breast cancer cell line; experiment: SRB antiproliferative assay, T-47D; format: cell-based; conditions: for IC50: SRB, 72 h, mean ± SD; for Selectivity index SIA, T-47D: IC50 HLMEC / IC50 T-47D; for Selectivity index SIB, T-47D: IC50 MCF-10A / IC50 T-47D
Method: (§1) We determined the effect of various structural factors in the substrates on the antiproliferative activity against those selected to the study cell lines: the location and/or the presence of the prenyl group, the chalcone/flavanone skeleton and the presence of an O-methyl group at C-5 in flavanones. Flavonoids presented in Figure 1 were tested for the antiproliferative activity towards eight cancer cell lines including estrogen-dependent (MCF7 and T-47D) and two normal ones (HLMEC and MCF 10A). The in vitro antiproliferative activity was measured using SRB assay. The results are presented in Figure 2 (and in the supplement in Table S1). The antiproliferative activity was measured separately for each of the experiments and given as the average IC50 (the concentration of tested compound which inhibits 50% of the cells population). Cisplatin (CP), a common anticancer drug, was used as a positive control.
(§2) The following established in vitro cell lines were applied: MCF7, T-47D, MDA-MB-231 (human breast cancer cell line), A2780 (human ovarian cancer cell line), A2780cis (human cisplatin-resistant ovarian cancer cell line), PC-3 and DU 145 (human prostate cancer cell lines), HT-29 (human colon cancer cell line), HLMEC (human lung microvascular endothelial cell line), and MCF 10A (human mammary epithelial cells line).
(§3) The cell lines: MDA-MB-231, HT-29, PC-3, DU 145, and MCF 10A were obtained from the American Type Culture Collection (Rockville, MD, USA), MCF7, T-47D, A2780, A2780cis from the European Collection Cell Cultures (Sigma-Aldrich, Chemie GmbH, Steinheim, Germany), while the HLMEC cell line was obtained by M. Paprocka from the institute. All cell lines are being maintained in the Institute of Immunology and Experimental Therapy (Wrocław, Poland). DU 145 and MCF7 cells were cultured in Eagle medium (supplemented with 4mM L-glutamine, 10% fetal bovine serum, 1 mM sodium pyruvate for DU 145 cells or 2 mM L-glutamine, 1% mem non-essential amino acid solution and 8 µg/mL insulin and 10% fetal bovine serum for MCF7). […] HT-29 and T-47D cell lines were cultured in RPMI 1640 + OPTI-MEM medium supplemented with 2 mM L-glutamine, 5% fetal bovine serum and 8 µg/mL of insulin (T-47D) or 1 mM sodium pyruvate (HT-29). MDA-MB-231, PC-3 and HLMEC cell lines were cultured in RPMI 1640 medium supplemented with 2 mM L-glutamine and 10% fetal bovine serum. Medium for MCF 10A cell line consisted of F-12 nutrient mixture supplemented with cholera toxin (0.05 µg/mL), insulin (10 µg/mL), hydrocortisone (0.5 µg/mL), 5% horse serum, and EGFH (20 ng/mL). All the culture media contained antibiotics: 100 units/mL penicillin (Polfa Tarchomin SA, Warsaw, Poland), and 100 µg/mL streptomycin (Sigma-Aldrich, Chemie GmbH, Steinheim, Germany). All cell lines were grown at 37 °C with 5% CO2 humidified atmosphere.
(§4) Twenty-four hours before the incubation with the tested compounds, the cells were seeded in 96-plates (Sarstedt, Germany) at a density of 1 × 10^4 cells per well (0.75 × 10^4 per well for MCF7 and 1 × 10^3 per well for HLMEC) in 100 µL of a culture medium.
(§5) Each agent at each concentration (from 0.1 to 100 µg/mL) was tested in a single experiment, which was repeated four to five times. […] Cisplatin was used as a reference drug.
(§6) The results were calculated as the IC50 (inhibitory concentration 50%)—the concentration of the tested compound which inhibits 50% of the cells population. IC50 values were calculated for each experiment separately and mean values ± SD are presented in the Table S1 in the Supplementary Materials. Each compound at each concentration was tested in triplicate in a single experiment, which was repeated four to five times.
(§7) The cells were fixed in situ by gently adding cold 50% trichloroacetic acid (50 µL per well). The plates were incubated at 4 °C for 1h and then washed five times with tap water. […]

[2] = system: A2780 human ovarian cancer cell line; experiment: SRB antiproliferative assay, A2780; format: cell-based; conditions: for IC50: SRB, 72 h, mean ± SD, read-out: Cancer cell line, IC50, A-2780; for Selectivity index SIA, A-2780: IC50 HLMEC / IC50 A-2780; for Selectivity index SIB, A-2780: IC50 MCF-10A / IC50 A-2780
Method: as §1, §2, §3, §4, §5, §6, §7

[3] = system: DU 145 human prostate cancer cell line; experiment: SRB antiproliferative assay, DU 145; format: cell-based; conditions: for IC50: SRB, 72 h, mean ± SD; for Selectivity index SIA, Du-145: IC50 HLMEC / IC50 Du-145; for Selectivity index SIB, Du-145: IC50 MCF-10A / IC50 Du-145
Method: as §1, §2, §3, §4, §5, §6, §7

[4] = system: HLMEC human lung microvascular endothelial cell line; experiment: SRB antiproliferative assay, HLMEC (normal); format: cell-based; conditions: 72 h, mean ± SD
[5] = system: PC-3 human prostate cancer cell line; experiment: SRB antiproliferative assay, PC-3; format: cell-based; conditions: for IC50: SRB, 72 h, mean ± SD; for Selectivity index SIA, PC-3: IC50 HLMEC / IC50 PC-3; for Selectivity index SIB, PC-3: IC50 MCF-10A / IC50 PC-3
Method: as §1, §2, §3, §4, §5, §6, §7

[6] = cited from earlier work
[7] = system: A2780cis human cisplatin-resistant ovarian cancer cell line; experiment: SRB antiproliferative assay, A2780cis; format: cell-based; conditions: for IC50: SRB, 72 h, mean ± SD, read-out: Cancer cell line, IC50, A-2780cis; for Selectivity index SIA, A-2780cis: IC50 HLMEC / IC50 A-2780cis; for Selectivity index SIB, A-2780cis: IC50 MCF-10A / IC50 A-2780cis
Method: as §1, §2, §3, §4, §5, §6, §7

[8] = system: MDA-MB-231 human breast cancer cell line; experiment: SRB antiproliferative assay, MDA-MB-231; format: cell-based; conditions: for IC50: SRB, 72 h, mean ± SD; for Selectivity index SIA, MDA-MB-231: IC50 HLMEC / IC50 MDA-MB-231; for Selectivity index SIB, MDA-MB-231: IC50 MCF-10A / IC50 MDA-MB-231
Method: as §1, §2, §3, §4, §5, §6, §7

[9] = system: HT-29 human colon cancer cell line; experiment: SRB antiproliferative assay, HT-29; format: cell-based; conditions: for IC50: SRB, 72 h, mean ± SD; for Selectivity index SIA, HT-29: IC50 HLMEC / IC50 HT-29; for Selectivity index SIB, HT-29: IC50 MCF-10A / IC50 HT-29
[10] = system: MCF 10A human mammary epithelial cells line; experiment: SRB antiproliferative assay, MCF 10A (normal); format: cell-based; conditions: 72 h, mean ± SD, read-out: Normal cell line, IC50, MCF-10A
Method: as §1, §2, §3, §4, §5, §6, §7

[11] = system: MCF7 human breast cancer cell line; experiment: SRB antiproliferative assay, MCF7; format: cell-based; conditions: for IC50: SRB, 72 h, mean ± SD; for Selectivity index SIA, MCF-7: IC50 HLMEC / IC50 MCF-7; for Selectivity index SIB, MCF-7: IC50 MCF-10A / IC50 MCF-7
Method: as §1, §2, §3, §4, §5, §6, §7

PC-3 cell line = system: PC-3 cell line; design: method as in PMID 23434138; conditions: earlier study; cited from earlier work
human CYP1A1 = system: human CYP1A1; design: method as in PMID 10752639; conditions: cited from earlier work
human CYP1B1 = system: human CYP1B1; design: method as in PMID 10752639; conditions: cited from earlier work
[12] = breast tissue study of Bolca and co-workers

| Compound | IC50 ([1]; Homo sapiens, T47D) | Selectivity index SIA, T-47D [1] | Selectivity index SIB, T-47D [1] | IC50 ([2]; Homo sapiens, A2780) | Selectivity index SIA, A-2780 [2] | Selectivity index SIB, A-2780 [2] | IC50 ([3]; Homo sapiens, DU-145) | Selectivity index SIA, Du-145 [3] | Selectivity index SIB, Du-145 [3] | IC50 ([4]; Homo sapiens, Endothelial cell) | Selectivity index SIA, PC-3 [5] | Selectivity index SIB, PC-3 [5] | Selectivity index SIA, A-2780cis [7] | Selectivity index SIB, A-2780cis [7] | Selectivity index SIA, MDA-MB-231 [8] | Selectivity index SIB, MDA-MB-231 [8] | Selectivity index SIA, HT-29 [9] | Selectivity index SIB, HT-29 [9] | Selectivity index SIA, MCF-7 [11] | Selectivity index SIB, MCF-7 [11] | further results |
| --- | --- | --- | --- | --- | --- | --- | --- | --- | --- | --- | --- | --- | --- | --- | --- | --- | --- | --- | --- | --- | --- |
| CC(C)=CCc1c(O)cc(O)c2c1OC(c1ccc(O)cc1)CC2=O (stereo not shown) [8PN, 8-(3,3-dimethylallyl)-5,7,4′-trihydroxyflavanone] | 26.7 ± 9.7 µM | 0.90 | 3.40 | 25.9 ± 8.32 µM | 0.92 | 3.50 | 60.6 ± 6.66 µM | 0.39 | 1.50 | 23.9 ± 10.9 µM | 0.47 | 1.77 | 0.36 | 1.37 | 0.37 | 1.42 | 0.27 | 1.00 | 0.48 | 1.83 | IC50 ([5]; Homo sapiens): 51.4 ± 11.3 µM; Glucuronidation [6, 12]: > 90%; IC50 ([7]; Homo sapiens, A2780cis): 66.4 ± 10.1 µM; IC50 ([8]; Homo sapiens, MDA-MB-231): 63.8 ± 7.27 µM; IC50 ([9]; Homo sapiens, HT-29): 89.8 ± 3.42 µM; IC50 ([10]; Homo sapiens, MCF-10A): 90.7 ± 19.8 µM; IC50 ([11]; Homo sapiens, MCF7, 72 h): 49.5 ± 7.36 µM |
| 8-(3,3-dimethylallyl)-4,7-dihydroxy-5-methoxyflavanone [IXN] | – | 0.47 | 2.70 | – | 1.58 | 9.09 | – | 0.21 | 1.22 | – | 0.23 | 1.35 | 1.07 | 6.19 | 0.29 | 1.66 | 0.41 | 2.36 | 0.75 | 4.31 | IC50 [1]: 26.8 ± 6.44 µM; IC50 [2]: 7.93 ± 1.65 µM; IC50 [3]: 59.2 ± 5.73 µM; IC50 [4]: 12.5 ± 5.65 µM; IC50 [5]: 53.2 ± 10.6 µM; Glucuronidation ([6]; in vivo): > 90%; IC50 [7]: 11.7 ± 1.44 µM; IC50 [8]: 43.3 ± 10.3 µM; IC50 [9]: 30.6 ± 1 µM; IC50 [10]: 72.1 ± 21.7 µM; IC50 [11]: 16.7 ± 0.88 µM |
| COc1cc(O)c(CCC(C)(C)O)c(O)c1C(=O)/C=C/c1ccc(O)cc1 [xanthohumol H, 3′-[3′-hydroxy-3”methylbutyl]-4,2′,4′-trihydroxy-6′-methoxychalcone] | – | – | – | – | – | – | – | – | – | – | – | – | – | – | – | – | – | – | – | – | Antiproliferative activity towards PC-3 cell line (PC-3 cell line): inactive |
| COc1cc(O)c(CC=C(C)C)c(O)c1C(=O)/C=C/c1ccc(O)cc1 [XN, 3′-(3,3-dimethylallyl)-4,2′,4′-trihydroxy-6′-methoxychalcone] | 7.99 ± 2.77 µM | 1.20 | 7.00 | 2.06 ± 1.03 µM | 4.65 | 27.16 | 6.49 ± 2.14 µM | 1.47 | 8.62 | 9.57 ± 4.23 µM | 1.11 | 6.50 | 1.17 | 6.81 | 1.13 | 6.61 | 1.02 | 5.94 | 0.88 | 5.16 | SIA against A2780, times higher than the reference ([2]; ratio of SIA to SIA of cisplatin): 5-8 times; Inhibition of EROD activity of CYP1A1 (human CYP1A1): almost completely inhibited; Inhibition of EROD activity of CYP1B1 (human CYP1B1): almost completely inhibited; IC50 ([5]; Homo sapiens): 8.61 ± 1.11 µM; Glucuronidation [6, 12]: > 90%; IC50 ([7]; Homo sapiens, A2780cis): 8.21 ± 0.83 µM; IC50 ([8]; Homo sapiens, MDA-MB-231): 8.46 ± 3.19 µM; IC50 ([9]; Homo sapiens, HT-29): 9.42 ± 0.25 µM; IC50 ([10]; Homo sapiens, MCF-10A): 56 ± 27.3 µM; IC50 ([11]; Homo sapiens, MCF7, 72 h): 10.8 ± 0.32 µM |
